These results are taken from ChEMBL document CHEMBL1126746, “Sulfonylmethanesulfonamide inhibitors of carbonic anhydrase” (J Med Chem, 1993).

Usually IC50 stands for the midpoint of a concentration-inhibition curve. A lower IC50 goes with inhibition by little substance. The term pKa denotes the negative logarithm of the acid dissociation constant. Lower therefore signals a group that gives up its proton readily. The term Kd denotes the concentration at which binding is half-saturated. Read a low Kd as tighter binding. By inhibition is commonly meant the percentage by which the read-out fell short of the control. Read a low inhibition as a response near the control.

Series [1] concerns the target Carbonic anhydrase. The format is protein assay, Canis lupus familiaris.
Description: In vitro inhibition of crude dog red blood cell carbonic anhydrase
For series [2], the target named is Carbonic anhydrase 2 (Homo sapiens, UniProt P00918).
Description: In vitro inhibition of purified human erythrocyte carbonic anhydrase II
Series [3] is described as follows: physchem.
Description: Acid dissociation constant was determined
The nature of series [4]: Equilibrium dissociation constant was determined. The format is ADME.
Series [5] concerns Carbonic anhydrase (Oryctolagus cuniculus). Description: Inhibition of carbonic anhydrase activity in a homogenate of rabbit iris-ciliary body at a dose of 0.05 mg (ex vivo).
A short description of series [6]: Equilibrium dissociation constant of CA complex for enantiomer 1 of compound. The format is ADME.
Series [7] relates to Carbonic anhydrase (Oryctolagus cuniculus). Kind of series: Ex vivo inhibition of carbonic anhydrase in homogenate of rabbit iris-ciliary body; expressed as volume/minute of 0.025 N NaOH required to maintain pH of assay mixture at 0.05 mg.
Series [8] has the same test system. Kind of series: Ex vivo inhibition of carbonic anhydrase in homogenate of rabbit iris-ciliary body; expressed as volume/minute of 0.025 N NaOH required to maintain pH of assay mixture at 0.25 mg.
Series [9] can be described thus: Equilibrium dissociation constant of CA complex for enantiomer 2 of compound. In kind it is ADME.
Series [10] deals with Carbonic anhydrase (Oryctolagus cuniculus). Description: Inhibition of carbonic anhydrase activity in a homogenate of rabbit iris-ciliary body at a dose of 0.25 mg (ex vivo).

As for `CCS(N)(=O)=O` [ETHANESULFONIC ACID AMIDE], in series [1], the IC50 is 1000 µM.

With `CCCCCCCCSCS(N)(=O)=O`, the IC50 in [2] was 0.48 µM.

As to `NS(=O)(=O)CSCCc1ccccc1`, the IC50 in [2] was found to be 2 µM. For the same molecule, in series [3], the pKa turned out to be 9.5.

Regarding `NS(=O)(=O)CSCCCc1ccccc1`, in series [2], half-maximal inhibition (IC50) was put at 1.2 µM. The molecule also returned a pKa in series [3] of 9.4.

Consider `NS(=O)(=O)CS(=O)(=O)CCCc1ccccc1`, for which 0.19 µM corresponded to half-maximal inhibition in [2] (IC50). The same molecule had a pKa in series [3] of 8.4.

As for `CCCCCCCCS(=O)(=O)C(Cl)S(N)(=O)=O` (stereo not drawn), the Kd in series [4] was determined as 0.017 µM. The 50% inhibitory concentration (IC50) in [2] turned out to be 0.012 µM. Further, the pKa in [3] worked out at 7.7.

In [2], `NS(=O)(=O)CS(=O)(=O)c1ccc(O)cc1` gave a concentration for half-maximal inhibition (IC50) of 0.4 µM. In addition, the pKa in series [3] stood at 9.1.

Regarding `NS(=O)(=O)CS(=O)(=O)CCc1ccccc1`, half-maximal inhibition in series [2] (IC50) required 0.1 µM. In series [3], the pKa was 8.4.

`CCCCCCCCS(=O)(=O)C(C)S(N)(=O)=O` (stereo not drawn) showed a 50% inhibitory concentration (IC50) in series [2] of 2.5 µM. The pKa in series [3] turned out to be 8.9.

Molecule `CCCCCCCCS(=O)(=O)CS(N)(=O)=O` displayed an IC50 in series [2] of 0.022 µM. In series [3], this molecule had a pKa of 9.4.

In series [2], `COCCOCCOCS(=O)(=O)CS(N)(=O)=O` came in with an IC50 of 1.3 µM.

With `CCCCCCCCS(=O)(=O)C(F)S(N)(=O)=O` (stereo not drawn), the inhibition in [5] is 71%; in series [10], 91%. Besides, the Kd was 0.00357 µM in series [6] and 0.00064 µM in series [9]. For the same molecule, the CA activity ((ml of NaOH) min-1) was 0.147 in series [7] and 0.043 in series [8]. For the same molecule, the midpoint of inhibition in series [2], the IC50, lay at 0.003 µM. Moreover, the pKa in [3] is 7.5.

`COc1ccc2c(c1)S(=O)(=O)C(S(N)(=O)=O)C2` (stereo not drawn) returned an IC50 in [2] of 0.8 µM. In series [3], the pKa was found to be 8.8.

For `CCCCCCCCS(=O)(=O)C(Cl)(Cl)S(N)(=O)=O`, the IC50 in series [2] came out at 0.2 µM.

In series [2], `NS(=O)(=O)CSc1ccc(O)cc1` returned an IC50 of 2.9 µM. In series [3], this molecule gave a pKa of 10.1.
